What was measured:
COX-2 = target: T1, COX-2 (Homo sapiens, UniProt P35354); assay: Intracellular COX-2 activity, kit on Caco-2/TC7 cell lysates; assay type: cell-based; conditions: Caco-2/TC7 cells, 24 h incubation with 20 μM of free ligands, mean ± SEM
T1 construct: a cyclooxygenase activity assay kit starting from Caco-2/TC7 cell lysates was used; endogenous in cells; host or cells: Caco-2/TC7 (human colon carcinoma)
T1 sequence (P35354 18-604): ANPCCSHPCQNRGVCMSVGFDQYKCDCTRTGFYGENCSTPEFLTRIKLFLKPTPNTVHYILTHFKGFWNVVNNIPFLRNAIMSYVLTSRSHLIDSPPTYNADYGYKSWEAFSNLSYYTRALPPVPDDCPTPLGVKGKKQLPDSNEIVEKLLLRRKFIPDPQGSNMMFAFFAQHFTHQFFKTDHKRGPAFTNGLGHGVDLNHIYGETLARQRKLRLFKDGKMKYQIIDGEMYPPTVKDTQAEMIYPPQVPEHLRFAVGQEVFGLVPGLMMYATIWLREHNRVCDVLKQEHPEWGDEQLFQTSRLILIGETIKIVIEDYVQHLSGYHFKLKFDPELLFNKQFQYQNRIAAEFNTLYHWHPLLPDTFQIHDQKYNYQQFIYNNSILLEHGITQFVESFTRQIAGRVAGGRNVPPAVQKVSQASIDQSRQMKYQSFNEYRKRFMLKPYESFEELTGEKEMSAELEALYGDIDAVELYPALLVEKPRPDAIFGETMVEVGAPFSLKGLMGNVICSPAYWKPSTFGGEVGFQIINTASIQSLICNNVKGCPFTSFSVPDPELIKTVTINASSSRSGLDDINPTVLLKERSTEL
Excerpt: (§1) Previous studies have shown that modifications in the structure of the naproxen molecule have led to effective inhibition of COX-2, with a high degree of selectivity compared to the COX-1 isoform.[63],[64] Thus, we have tested the inhibitory activity of the best active compounds [Au(L3)(JohnPhos)] […] For this purpose, a cyclooxygenase activity assay kit starting from Caco-2/TC7 cell lysates was used, aiming to develop a new class of inhibitors that present a balanced COX-1/COX-2 inhibition to control the severe side effects resulting from nonselective COX inhibition. Inhibition of COX enzymes is expressed as the percentage of inhibition relative to control COX-1 or COX-2 activity. […] Complex [Au(L4)(JohnPhos)] […] This fact underscores the importance of the coordination of the metal center to the NSAID derivative, since the presence of the gold center is essential for achieving selectivity toward the COX-2 isoform, similar to what is observed in other gold compounds for different biomolecules.[65],[66]
(§2) The interaction of metal complexes with the enzyme cyclooxygenase was analyzed using a cyclooxygenase (COX) Activity Assay Kit (fluorometric) (AB204699 Abcam Inc. Massachusetts, USA). The procedural guidelines of the supplied kit were followed. The reaction commenced with the introduction of AA.

COX-1 = target: T2, COX-1 (Homo sapiens, UniProt P23219); assay: Intracellular COX-1 activity, kit on Caco-2/TC7 cell lysates; assay type: cell-based; conditions: Caco-2/TC7 cells, 24 h incubation with 20 μM of free ligands, mean ± SEM
T2 construct: a cyclooxygenase activity assay kit starting from Caco-2/TC7 cell lysates was used; endogenous in cells; host or cells: Caco-2/TC7 (human colon carcinoma)
T2 sequence (P23219 24-599): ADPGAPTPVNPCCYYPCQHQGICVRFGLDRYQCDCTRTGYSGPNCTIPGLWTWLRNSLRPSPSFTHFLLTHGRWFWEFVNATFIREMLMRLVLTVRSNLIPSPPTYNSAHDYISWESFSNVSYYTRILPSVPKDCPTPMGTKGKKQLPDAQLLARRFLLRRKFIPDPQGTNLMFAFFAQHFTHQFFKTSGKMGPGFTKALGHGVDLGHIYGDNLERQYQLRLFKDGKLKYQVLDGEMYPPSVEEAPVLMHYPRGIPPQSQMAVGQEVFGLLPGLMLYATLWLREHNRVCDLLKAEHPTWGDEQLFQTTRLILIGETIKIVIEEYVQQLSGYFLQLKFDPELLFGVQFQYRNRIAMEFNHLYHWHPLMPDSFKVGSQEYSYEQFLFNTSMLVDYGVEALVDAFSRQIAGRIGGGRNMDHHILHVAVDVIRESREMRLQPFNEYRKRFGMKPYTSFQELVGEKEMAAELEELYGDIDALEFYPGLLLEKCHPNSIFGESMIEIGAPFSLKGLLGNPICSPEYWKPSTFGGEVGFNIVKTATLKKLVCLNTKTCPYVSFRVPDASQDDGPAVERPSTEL
Excerpt: as §1, §2

Caco-2/TC7 cells = assay: MTT antiproliferative assay on Caco-2/TC7 colon cancer cells; assay type: cell-based, human; conditions: 72 h incubation, undifferentiated cells, mean ± SE
Excerpt: The antiproliferative effect of the reference drug auranofin was included as positive control. […] However, the coordination of the gold-phosphane unit to these ligands derived from NSAIDs leads to much more cytotoxic complexes, as can be observed in Table 1 with IC50 values in the range of that found in auranofin or even lower values for complexes [Au(L1)(CyJohnPhos)] (1a), [Au(L4)(CyJohnPhos)] […] This fact has already been observed previously in related gold complexes with an alkyne ligand derived from naproxen molecule,[43] which makes naproxen an excellent pharmacophore when coordinated to gold(I).
The human Caco-2 cell line (TC7 clone) was kindly provided by Dr. Edith Brot-Laroche (Université Pierre et Marie Curie-Paris 6, UMR S 872, Les Cordeliers, France), Human epithelial fibroblast cells (NHDF-Ad, Lonza, Porriño, Spain) were kindly provided by Dr. Gracia Mendoza (Aragon Health Research Institute, IIS Aragón, Spain). Caco-2 cells (passages 36–48) and fibroblasts (passages 10–20) were maintained in a humidified atmosphere of 5% CO2 at 37 °C in Dulbecco’s Modified Eagles medium (DMEM) (Gibco Invitrogen. Paisley. UK) supplemented with 20% fetal bovine serum, 1% nonessential amino acids, 1% penicillin (1000 U/mL), 1% streptomycin ([…]) and 1% amphotericin (250 U/mL). The Caco-2 cells were subcultured in 25 cm^2 plastic flasks at a density of 3 × 10^5 cells/cm^2, while the fibroblasts were subcultured on 75 cm^2 plastic flasks at a density of 1 × 10^4 cells/cm^2. The culture medium was replaced every 2 days.
The gold complexes were diluted in dimethyl sulfoxide (DMSO) as a 10 mM stock solution and then diluted in a cell culture medium at the desired concentrations. For the cytotoxicity screening assays, Caco-2 cells were seeded in 96-well plates at a density of 4 × 10^3 cells/well. […] The antiproliferative effect was measured using an MTT assay, as previously described by Marmol et al.[93] The absorbance at 540/620 nm was measured using a SPECTROstar Nano (BMG Labtech. Ortenberg. Germany). […]

[1] = Distribution coefficient log D7.4; assay type: physicochemical; conditions: pH 7.4
Excerpt: Table 1 Distribution Coefficients and IC50 (μM) ^b Values of the Complexes on Caco-2/TC7 Cancer Cells Compared with Auranofin ^a | column: log D7.4

COC(=O)C(CCSC)NC(=O)Cc1c(C)n(C(=O)c2ccc(Cl)cc2)c2ccc(OC)cc12 (stereo not drawn) [L3]
Percent inhibition of COX-2 (COX-2): 53.6 ± 14.3%
Percent inhibition of COX-1 (COX-1): 22.9 ± 10.7%

CC#N.[Au+].[F][Sb-]([F])([F])([F])([F])[F].c1ccc(-c2ccccc2P(C2CCCCC2)C2CCCCC2)cc1 [[Au(MeCN)(CyJohnPhos)]SbF6, reference compound]
IC50 (Caco-2/TC7 cells): 1240 ± 670 nM

COC(=O)[C@H](CCSC)NC(=O)[C@@H](C)c1ccc2cc(OC)ccc2c1 [L4, Methyl ((S)-2-(6-Methoxynaphthalen-2-yl)propanoyl)methioninate]
Percent inhibition of COX-2 (COX-2): 44.7 ± 13.4%
Percent inhibition of COX-1 (COX-1): 36.9 ± 7.6%

COC(=O)[C@H](CCSC)NC(=O)c1ccccc1Nc1cccc(C)c1C [L1, Methyl (2-((2,3-Dimethylphenyl)amino)benzoyl)methioninate]
Percent inhibition of COX-2 (COX-2): 63.1 ± 8.9%
Percent inhibition of COX-1 (COX-1): 15.2 ± 5.7%

COC(=O)[C@H](CCSC)NC(=O)C(C)c1ccc(CC(C)C)cc1 (stereo partly drawn) [L2, Methyl (2-(4-Isobutylphenyl)propanoyl)methioninate]
Percent inhibition of COX-2 (COX-2): 55.8 ± 8.1%
Percent inhibition of COX-1 (COX-1): 15.9 ± 7.3%

CC[PH](CC)(CC)[Au][S][C@@H]1O[C@H](COC(C)=O)[C@@H](OC(C)=O)[C@H](OC(C)=O)[C@H]1OC(C)=O [Auranofin, reference compound]
IC50 (Caco-2/TC7 cells): 1800 ± 100 nM
log D7.4 [1]: –2.53

CC#N.CC(C)(C)P(c1ccccc1-c1ccccc1)C(C)(C)C.[Au+].[F][Sb-]([F])([F])([F])([F])[F] [[Au(MeCN)(JohnPhos)]SbF6, reference compound]
IC50 (Caco-2/TC7 cells): 900 ± 760 nM
